From patent US20210189367A1, “Inducible Cell Receptors for Cell-Based Therapeutics” (Senti Biosciences, Inc., priority 2017, published 2021)

Experiments:
Assay type in all cases: cell-based, human
[1] = system: CAR; assay: Switchable expression of CAR by application of ASV (YFP, flow cytometry), CAR T cells
Text: The first fusion protein (left) comprises an extracellular protein binding domain fused to a myc tag and three intracellular signaling domains fused to YFP. The second fusion protein (middle; “CAR-SMASh”) further comprises a Hepatitis C (HCV) NS4A-NS4B protease cleavage site, a HCV NS3 protease domain, and a degron derived from the HCV NS4A protein. The CAR-SMASh, therefore, expresses CAR, but induces degradation of CAR in the presence of ASV. The third fusion protein (right; “CAR-SMASh[GGS]”) is a CAR-SMASh mutant lacking the NS4 degron.
(§1) Human total pan T cells were isolated from PBMC donors by magnetic-assisted cell sorting using StemCell Technologies Total Pan T Cell Isolation Kit and stimulated with anti-CD3/28 Dynabeads at a 1:3 ratio (T cells:Dynabeads), 10^6 T cells with 3×10^Dynabeads, in CTS OpTmizer media with CTS Serum Replacement and recombinant human IL-2 [100 U/ml]. One day later T cells were then transduced with lentivirus carrying a CAR comprising anti-HER2 or anti-CD19 scFv. Specifically, lentivirus encoding CAR, CAR-SMASh and CAR-SMASh[GGS] comprising anti-HER2 or anti-CD19 scFv was transduced. CAR-T cells were then split into a larger well with fresh media added. On Day 5 CAR-T cells were exposed to ASV [2 μM] and then analyzed by flow cytometry to measure YFP expression at various time points, including on day 6 (FIG. 13) and on day 7 (FIG. 14).

[2] = system: Jurkat cells transduced with an anti-Her2 CAR fused to a self-excising degron; assay: T cell activation (CD69) of anti-Her2 CAR-degron Jurkat cells on recombinant Her2; details: 1 μM ASV 2 days, then recombinant Her2-coated plates overnight, even at high Her2 (10 μg/mL)
Protocol: The function of an anti-Her2 CAR fused to a self-excising degron in T cells was tested in vitro. Jurkat cells (an immortalized human T cell line) were transduced with an anti-Her2 CAR fused to a self-excising degron (SEQ ID NO: 4). These cells were incubated in the presence (1 μM ASV) or absence of the ASV protease inhibitor for 2 days, then subsequently placed on tissue culture plates coated with recombinant Her2 (low=2.5 μg/mL; high=10 μg/mL). Following overnight incubation, the ant-Her2 CAR T cells were stained with an anti-CD69 fluorescent antibody, and the mean fluorescence of each cell population was measured using flow cytometry. CD69 was used as a T-cell activation marker.

[3] = system: CAR; assay: Switchable expression of CAR by removal of ASV (YFP, flow cytometry), CAR T cells; details: T cells transduced with CAR (FIG. 16A)
Text: as §1, with “3×10^6 Dynabeads,” for “3×10^Dynabeads,”, “for 2 days, washed 2 times, then re-cultured in media without ASV” for “[2 μM]”, “were acquired” for “analyzed”, “cytometry” for “cytometry to measure YFP expression”, “points” for “points, including on day 6 (FIG. 13)”, “YFP expression was measured.” for “on day 7 (FIG. 14).”

[4] = system: CAR-T cells co-cultured with target HER2+ SKOV3 tumor cells; assay: Cytokine production by CAR-T cells co-cultured with target tumor cells, Luminex multi-cytokine array; details: CAR-SMASh T cells, ASV 2 μM, E:T 10:1
Text: Human […] pan T cells were isolated from PBMC donors by magnetic-assisted cell sorting using StemCell Technologies Total Pan T Cell Isolation Kit and stimulated with anti-CD3/28 Dynabeads at a 1:3 ratio (T cells:Dynabeads), 10^6 T cells with 3×10^6 Dynabeads, in CTS OpTmizer media with CTS Serum Replacement and recombinant human IL-2 [100 U/ml]. 1 day later T cells were then transduced with lentivirus carrying anti-HER2 scFv CAR-SMASh designs. CAR-T cells were then split into a larger well with fresh media added. On Day 6 CAR-T cells were treated with ASV [2 μM] for 2 days. On Day 8 CAR-T cells were washed, replenished with ASV, and co-cultured with target HER2+ SKOV3 tumor cells at (10:1) effector-to-target (E:T) ratio, incubated overnight, and supernatants collected the next day. Cytokines were measured by Luminex multi-cytokine array using a Luminex MagPix (Sigma Millipore).

Compound: C=C[C@@H]1C[C@]1(NC(=O)[C@@H]1C[C@@H](Oc2ncc(OC)c3ccc(Cl)cc23)CN1C(=O)[C@@H](NC(=O)OC(C)(C)C)C(C)(C)C)C(=O)NS(=O)(=O)C1CC1 [ASV, Asunaprevir]
- CAR expression (percentage YFP+ and YFP MFI) ([1]; CAR T cells, ASV 2 μM, day 6 (FIG. 13)): no effect
- CAR expression (percentage YFP+) over time after addition of ASV ([1]; T cells expressing CAR (FIG. 15A)): no effect
- cells activated (CD69) [2]: less than 25%
- reversible effects on CAR expression (percentage YFP+) after removal of ASV [3]: not observed
- IFN-gamma production ([4]; overnight (FIG. 19A)): decreased production
- IL-lalpha production ([4]; overnight (FIG. 19B)): decreased production
- IL-6 production ([4]; overnight (FIG. 19C)): decreased production
